Laboratory results taken from ChEMBL document CHEMBL3886736, “Substituted sulfonamides useful as antiapoptotic Bcl inhibitors” (2016).
pIC50: −log10 of the molar value.

Legend:
[1] = biological target: Apoptosis regulator Bcl-2 (Homo sapiens, UniProt P10415); experiment: Fluorescence Polarization Assay (FPA): The assays were performed in black flat-bottom 384-well plates. The final assay volume was 50 μl prepared from additions of Gst-Bcl-2 (Bcl-2: GENBANK® Accession No. P10415), fluoresceinated 18-mer BIM peptide (NH2-[…]-[FAM]) (SEQ ID NO: 1), and test compounds in assay buffer consisting of 20 mM Sodium Phosphate, 1 mM EDTA, 50 mM NaCl, and 0.05% Pluronic Acid. The reaction was incubated at room temperature for 60 minutes and fluorescence polarization of the reaction was detected on the LJL Plate Reader. Inhibition data were calculated from mP values generated by the no protein control reactions for 100% inhibition and vehicle-only reactions for 0% inhibition. The final concentrations of reagents in the assay were 4.9 nM BCL-2, 5 nM fluoresceinated 18-mer BIM peptide and 1% DMSO.
Apoptosis regulator Bcl-2, sequence (P10415 whole entry): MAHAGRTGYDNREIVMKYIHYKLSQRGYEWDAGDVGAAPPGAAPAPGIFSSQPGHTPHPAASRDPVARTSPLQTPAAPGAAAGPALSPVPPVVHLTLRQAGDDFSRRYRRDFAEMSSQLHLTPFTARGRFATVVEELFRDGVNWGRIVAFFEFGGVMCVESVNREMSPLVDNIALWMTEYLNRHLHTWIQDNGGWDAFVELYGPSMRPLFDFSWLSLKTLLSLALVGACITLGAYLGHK

Bcl-2-like protein 1 = Bcl-2-like protein 1 (Homo sapiens, UniProt Q07817); experiment: Fluorescence Resonance Energy Transfer Assay (FRET): The assays were performed in black flat-bottom 384-well plates. The final assay volume was 55 μl prepared from additions of Biotin-Bcl-xL (Bcl-xL: GENBANK® Accession No. Q07817), fluoresceinated 18-mer BIM peptide (NH2-[…]-[FAM]) (SEQ ID NO: 1), Streptavidin-Terbium FRET detection reagent, and test compounds in assay buffer consisting of 20 mM Sodium Phosphate, 1 mM EDTA, 50 mM NaCl, and 0.05% Pluronic Acid. The reaction was incubated at room temperature for 60 minutes. After 60 minutes, 5 μL of Streptavidin-Terbium FRET detection reagent (Perkin Elmer) was added to the reaction mixture and incubated at room temperature in the dark for 30 mins. The FRET signal generated by the reaction was detected on the Envision Plate Reader Inhibition data were calculated from FRET values generated by the no protein control reactions for 100% inhibition and vehicle-only reactions for 0% inhibition. The final concentration of reagents in the assay was 10 nM Bcl-xL, 5 nM fluo
Bcl-2-like protein 1, sequence (Q07817 whole entry): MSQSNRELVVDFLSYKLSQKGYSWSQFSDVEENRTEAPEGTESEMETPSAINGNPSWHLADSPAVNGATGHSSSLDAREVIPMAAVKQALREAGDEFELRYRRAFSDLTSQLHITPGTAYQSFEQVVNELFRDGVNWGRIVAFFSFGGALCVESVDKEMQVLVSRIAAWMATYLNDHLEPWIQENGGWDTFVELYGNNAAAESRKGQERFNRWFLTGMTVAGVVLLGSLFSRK

| pIC50 [1] | pIC50 (Bcl-2-like protein 1) | SMILES |
| --- | --- | --- |
| 6.92 | 7.22 | CCCCN(CCCC)C(=O)c1cn(CCN2CCOCC2)c(-c2ccc(C(=O)NS(=O)(=O)c3ccc4ccccc4c3)cc2C(=O)N2Cc3ccccc3C[C@H]2CO)n1 |
| 7.30 | 5.09 | Cc1c(Cl)c(C(=O)NCc2ccc(-c3ccc(CC(=O)O)cc3)cc2)nn1-c1ccc(C(=O)NS(=O)(=O)c2ccc3c(c2)CCN3Cc2ccc(Cl)c(Cl)c2)cc1C(=O)N1CCc2ccccc2C1 |
| 6.70 | 7.52 | CCCCN(CCCC)C(=O)c1cn(CCCN(C)C)c(-c2ccc(C(=O)NS(=O)(=O)c3ccc4ccccc4c3)cc2C(=O)N2CCc3ccccc3C2)n1 |
